# Experimental data reported in patent publication US20230058623A1, “NOVEL HETEROARYL-TRIAZOLE COMPOUNDS AS PESTICIDES” (Bayer Aktiengesellschaft, priority 2019, published 2023).
# Test system: adult Blattella germanica strain PAULINIA
# Experiment: whole plant or invertebrate
# Format: in vivo
# Conditions: read-out: efficacy (mortality)
# Description: Blattella germanica Test (BLTTGE Surface Treatment & Contact Assay)
# Solvent: Aceton+2000 ppm rapeseed oil methyl ester (RME) In order to produce a sufficient, active ingredient containing solution it is necessary to solve the test compound in the solvent-mix (acetone at 2 mg/ml/RME 2000 ppm). This solution is pipetted onto a glazed tile and after evaporation of the acetone, adult animals of the species Blattella germanica strain PAULINIA are placed onto the dried surface. The exposure time is 30 minutes.
# Mortality in percent (%) is determined 24 hours after contact of the insects to the treated surface. 100% mortality means that all tested insects are dead, whereas 0% means that no insect died.
compound,measurement,value
"Cc1nc([C@H](C)NC(=O)c2cc(C(F)(F)F)cc(C(F)(F)F)c2)n(-c2ccc(C(=O)N3CCOCC3)cn2)n1 [Example I-9, N-[(1S)-1-{3-methyl-1-[5-(morpholin-4-ylcarbonyl)pyridin-2-yl]-1H-1,2,4-triazol-5-yl}ethyl]-3,5-bis(trifluoromethyl)benzamide]",mortality at 20 mg/m2,80 to 100%
